Read-outs that look alike come from different tables or passages of the source.
Assays:
B-RAF (V600E) = target: T1, B-RAF (V600E) (Homo sapiens, UniProt P15056, V600E); assay: BRAF^V600E inhibition assay (B-RAF (V600E) Kinase Assay Kit, Kinase-Glo MAX); assay type: biochemical; settings: isolated BRAF^V600E, ATP 10 μM, 30 °C, 45 min; three experiments in duplicate; read-out: BRAF (V600E) Kinase Activity IC50 (nM ± SEM)
T1 construct: purchased BPS Bioscience
Procedure: In a 96-well plate, the different inhibitor solutions in DMSO were mixed with Buffer, ATP (10 μM) and Raf substrate. […] After a 15 min delay to equilibrate plate temperature, 50 μL of Kinase-Glo Max was added in each well, and the luminescence was measured according to supplier’s instruction. The results, reported as IC50 ± S.E.M., were calculated with GrapPad Prism 7 and derive from three different experiments run in duplicate.

[1] = Stability in RPMI cell medium; assay type: in vitro ADME; settings: RPMI cell culture medium with 10% FBS, RPMI with 10% FBS, 37 °C
Procedure: (§1) Stability of compounds was determined in RPMI medium and in human serum. DMSO stock solutions of compounds (10 mM) was added to RPMI (Sigma–Aldrich, Darmstadt, Germany) competed with 10% fetal bovine serum (FBS) plus 2 mM glutamine, penicillin (100 IU/mL), and streptomycin (100 μγ/mL; Sigma–Aldrich, Darmstadt, Germany) or to human serum (sterile-filtered from human male AB plasma, Sigma–Aldrich, Darmstadt, Germany), to obtain the 100 μM final concentration with 1% of DMSO. The resulting solutions were incubated at 37 °C for 48 h. At appropriate time intervals (0, 1, 5, 24 and 48 h), 300 µL of the reaction mixture was withdrawn and added to 300 µL of acetonitrile 0.1% TFA. The samples were vortexed, sonicated for 3 min and then centrifuged for 5 min at 2500× g. The clear supernatant was filtered through a PTFE 0.45 μm filter (VWR) and analyzed by RP-HPLC. Each experiment was independently repeated at least three times, and results are expressed as a percentage of unmodified compound over time. The half-life was determined by fitting the data with a one phase exponential decay equation (Graph Pad, Prism software vr. 5, GraphPad Software Inc., San Diego, CA, USA). […]
(§2) The column effluent was monitored at 226 and 300 nm, referenced against a 800 nm wavelength. […] Quantitation of compounds was obtained by calibration curves (linearity determined in a concentration range of 1–100 µM, r^2 > 0.99).

Stability in human serum = assay type: in vitro ADME; settings: male, 37 °C
Procedure: as §1, §2

A375 melanoma cell line = assay: Antiproliferative activity, CellTiter-Glo, A375; assay type: cell-based; settings: Homo sapiens, A-375, A375, 72 h
Procedure: Based on the previous preliminary tests, we sought to investigate the ability of synthesized compounds 5–15 and reference 1 in inhibiting the proliferation of BRAF^V600E mutant cancer cells. A first screening was conducted in A375 melanoma cell lines (Table 1, Figure S2). Encorafenib was employed for comparison.
(§3) The ability of compounds 5, 10, 11, 15–selected based on their chemical diversity–to inhibit cell proliferation was then tested both in A375 and in Colo205 cancer cell lines. […] P5B was obtained by joining the BRAF inhibitor BI 882370 to pomalidomide through a five PEG unit spacer (Figure S3). In compound P5B, the linker length was of 17 atoms, the same length of the spacer used to generate our compound 10. A375 and Colo205 cells were treated for 72 h with compounds 5, 10, 11, 15, and P5B, and the antiproliferative activity was measured by a luminescent ATP-based assay, which determines the number of viable cells based on their metabolic activity. […] However, P5B was more efficient in inhibiting tumor cell viability in comparison with the other selected compounds.
(§4) Cell viability was evaluated by means of CellTiter-Glo Luminescent Assay (Promega), which allows users to measure the ATP in the cell supernatant. The assay was performed according to manufacturer’s instructions. In brief, 4.10^3 A375 or Colo205 were seeded into 96-well plates and allowed to adhere at the wall overnight. Cells were treated for 72 h with BRAF inhibitor compounds. Then, 90 µL of the cell culture medium was transferred in a white 96-well plate, to which 10 µL of CellTiter-Glo was added before measurement of luminescence. Luminescence was measured by the SPARK M10 (Tecan, Männedorf, Switzerland) plate reader.

Colo205 cells = assay: Cell permeability in Colo205 cells; assay type: in vitro ADME; settings: Colo205 cells (Table S1)
Colo205 cell line = assay: Antiproliferative activity, CellTiter-Glo, Colo205; assay type: cell-based; settings: Homo sapiens, COLO 205; Colo205, 72 h (Figure 6b); read-out: Antiproliferative activity IC50 (nM ± SEM)
Procedure: as §3, §4

BRAF^V600E [2] = test system: T2, BRAF^V600E; assay: Western blot, BRAF^V600E degradation in A375; assay type: cell-based
T2 construct: endogenous in cells; host or cells: A375 and Colo205 cell lines
Procedure: (§5) Finally, we investigated the capability of the most antiproliferative compounds in interfering with BRAF pathway, favoring target degradation. To this end, Western blot analysis was conducted 24 h after incubation with 10 and 11 in both A375 and Colo205 cell lines. […] This observation was consistent with their ability to inhibit BRAF^V600E.
(§6) To measure the capability of our compounds to interfere with BRAF pathway, pre-treated A375 and Colo205 cells were lysed. We then performed protein analysis through Western blot by using the following primary antibodies: anti-phospho ERK 1/2 (clone E10; dilution 1:1000; Cell Signaling Technology, Danvers, MA, USA) and anti-ERK (clone 137F5; dilution 1:1000; Cell Signaling Technology); anti-phospho MEK (clone S217/221; dilution 1:1000; Cell Signaling Technology); anti-MEK1,2 (clone 9122; dilution 1:1000; Cell Signaling Technology); anti-BRAF v600e (dilution 1:1000; Abcam, Cambridge, UK); and anti-total BRAF (dilution 1:1000; ThermoFisher, Waltham, MA, USA). Vinculin (clone E1E9B; dilution 1:1000; Cell Signaling Technology) was used as a loading control. The total protein amount was determined using the bicinchoninic acid (BCA) protein assay reagent (Thermo Scientific, Waltham, MA, USA). Equivalent amounts of protein were separated by SDS–PAGE on precast Bolt 4–12% Bis-Tris gel (Invitrogen, Carlsbad, CA, USA). Proteins were then transferred from gel to nitrocellulose with a Trans-Blot Turbo transfer system (Biorad, Hercules, CA, USA), probed with goat anti-rabbit IgG (H+L) secondary antibody, HRP conjugate (Invitrogen) or goat anti-mouse IgG (H+L) secondary antibody, HRP conjugate (Jackson ImmunoResearch Inc., Langcaster, PA, USA), and detected using enhanced chemiluminescence technique (Western Lightning Plus-ECL, Enhanced Chemiluminescence Substrate; Perkin Elmer, catalog # NEL105001EA, Waltham, MA, USA).

BRAF^V600E [3] = test system: T2, BRAF^V600E; assay: Western blot, BRAF^V600E degradation in Colo205; assay type: cell-based
Procedure: as §5, §6

[4] = test system: phosphorylation of MEK and ERK; assay: Western blot, BRAF signaling in A375; assay type: cell-based; settings: A375, 24 h incubation
Procedure: as §5
(§7) To measure the capability of our compounds to interfere with BRAF pathway, pre-treated A375 and Colo205 cells were lysed. […] The total protein amount was determined using the bicinchoninic acid (BCA) protein assay reagent (Thermo Scientific, Waltham, MA, USA). […] Proteins were then transferred from gel to nitrocellulose with a Trans-Blot Turbo transfer system (Biorad, Hercules, CA, USA), probed with goat anti-rabbit IgG (H+L) secondary antibody, HRP conjugate (Invitrogen) or goat anti-mouse IgG (H+L) secondary antibody, HRP conjugate (Jackson ImmunoResearch Inc., Langcaster, PA, USA), and detected using enhanced chemiluminescence technique (Western Lightning Plus-ECL, Enhanced Chemiluminescence Substrate; Perkin Elmer, catalog # NEL105001EA, Waltham, MA, USA).

[5] = test system: phosphorylation of MEK and ERK; assay: Western blot, BRAF signaling in Colo205; assay type: cell-based; settings: Colo205, 24 h incubation
Procedure: as §5, §7

[6] = first screening (Table 1), read-out: Antiproliferative Activity IC50 ± SEM

T1 sequence (P15056 whole entry V600E): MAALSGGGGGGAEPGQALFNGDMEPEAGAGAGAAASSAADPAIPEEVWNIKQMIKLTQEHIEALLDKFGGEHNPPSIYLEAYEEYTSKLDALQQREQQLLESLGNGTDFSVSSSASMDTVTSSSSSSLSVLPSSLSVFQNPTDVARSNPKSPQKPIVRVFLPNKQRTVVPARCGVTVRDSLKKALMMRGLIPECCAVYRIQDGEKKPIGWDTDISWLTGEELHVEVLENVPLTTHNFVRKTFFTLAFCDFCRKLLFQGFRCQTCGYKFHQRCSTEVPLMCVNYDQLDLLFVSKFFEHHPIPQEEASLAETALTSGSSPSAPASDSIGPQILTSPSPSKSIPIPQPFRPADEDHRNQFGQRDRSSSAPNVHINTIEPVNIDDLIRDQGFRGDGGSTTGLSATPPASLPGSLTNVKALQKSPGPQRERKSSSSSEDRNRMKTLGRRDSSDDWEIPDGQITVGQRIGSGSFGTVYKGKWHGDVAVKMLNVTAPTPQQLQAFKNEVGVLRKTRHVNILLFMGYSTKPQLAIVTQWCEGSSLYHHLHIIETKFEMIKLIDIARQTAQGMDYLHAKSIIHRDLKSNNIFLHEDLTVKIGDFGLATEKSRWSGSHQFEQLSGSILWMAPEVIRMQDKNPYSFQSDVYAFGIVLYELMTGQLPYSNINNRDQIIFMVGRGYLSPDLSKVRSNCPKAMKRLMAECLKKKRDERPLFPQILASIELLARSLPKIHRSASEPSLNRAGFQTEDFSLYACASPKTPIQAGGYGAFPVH

| IC50 (B-RAF (V600E)) [nM] | half-life at 100 μM [1] [h] | half-life at 100 μM (Stability in human serum) [h] | IC50 (A375 melanoma cell line; [6]) [nM] | IC50 (A375 melanoma cell line; second set of experiments (Figure 6a), read-out: Antiproliferative activity IC50 (nM ± SEM)) [nM] | IC50 (Colo205 cell line) [nM] | SMILES | cell permeability (Colo205 cells) | BRAF^V600E degradation (BRAF^V600E [2]; A375, 24 h, 100–500 nM) | BRAF^V600E degradation at higher concentration (BRAF^V600E [2]; A375, up to 10 µM (Figure S4)) | BRAF^V600E degradation (BRAF^V600E [3]; Colo205, 24 h, 100–500 nM) | BRAF^V600E degradation at higher concentration (BRAF^V600E [3]; Colo205, up to 10 µM (Figure S4)) | phosphorylation of MEK and ERK [4] | phosphorylation of MEK and ERK [5] |
| --- | --- | --- | --- | --- | --- | --- | --- | --- | --- | --- | --- | --- | --- |
| 57 ± 7 | 21 | 24 | 1760 ± 287 |  |  | CC(C)n1cc(-c2ccnc(NC[C@H](C)NC(=O)CCOCCOCCOCCNc3cccc4c3C(=O)N(C3CCC(=O)NC3=O)C4=O)n2)c(-c2cc(Cl)cc(NS(C)(=O)=O)c2F)n1 (stereo partly drawn) [Compound 8, N-((S)-1-((4-(3-(5-chloro-2-fluoro-3-(methylsulfonamido)phenyl)-1-isopropyl-1H-pyrazol-4-yl)pyrimidin-2-yl)amino)propan-2-yl)-3-(2-(2-(2-((2-(2,6-dioxopiperidin-3-yl)-1,3-dioxoisoindolin-4-yl)amino)ethoxy)ethoxy)ethoxy)propanamide] | ability to reach the cytosolic compartment |  |  |  |  |  |  |
| 75 ± 17 | 19 | 23 | 132 ± 1.95 | 194 ± 36 | 31 ± 10 | CC(C)n1cc(-c2ccnc(NC[C@H](C)NC(=O)CCOCCOCCOCCOCCOCCNc3cccc4c3C(=O)N(C3CCC(=O)NC3=O)C4=O)n2)c(-c2cc(Cl)cc(NS(C)(=O)=O)c2F)n1 (stereo partly drawn) [Compound 10, N-((S)-1-((4-(3-(5-chloro-2-fluoro-3-(methylsulfonamido)phenyl)-1-isopropyl-1H-pyrazol-4-yl)pyrimidin-2-yl)amino)propan-2-yl)-1-((2-(2,6-dioxopiperidin-3-yl)-1,3-dioxoisoindolin-4-yl)amino)-3,6,9,12,15-pentaoxaoctadecan-18-amide] |  | not able to induce BRAF^V600E degradation | no degradation of the target protein | not able to induce BRAF^V600E degradation | no degradation of the target protein | able to decrease phosphorylation of MEK and ERK | able to decrease phosphorylation of MEK and ERK |

— article PMC9736157 (Molecules, 2022)
